Data on 13 compounds can be found in ChEMBL document CHEMBL1144375, “Solid-phase synthesis of naphthylamidines as factor VIIa/tissue factor inhibitors” (Bioorg Med Chem Lett, 2005).

One test addresses Prothrombin (Homo sapiens, UniProt P00734). In words: Inhibition constant towards human thrombin.
In another test the target is T1, Serine protease 1 (Bos taurus, UniProt P00760).
T1 sequence (P00760 whole entry): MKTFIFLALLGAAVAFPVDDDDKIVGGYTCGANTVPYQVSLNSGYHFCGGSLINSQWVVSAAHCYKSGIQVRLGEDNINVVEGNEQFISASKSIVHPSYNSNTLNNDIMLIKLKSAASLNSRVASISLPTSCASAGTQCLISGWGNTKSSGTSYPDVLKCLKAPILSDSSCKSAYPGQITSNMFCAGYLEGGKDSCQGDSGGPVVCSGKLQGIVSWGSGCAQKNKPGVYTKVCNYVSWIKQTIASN
In words: Inhibition constant towards bovine trypsin.

Another test addresses Coagulation factor X (Homo sapiens, UniProt P00742). In words: Inhibition constant towards human coagulation factor X.
A further test has as its target T2, Coagulation factor VII (Homo sapiens, UniProt P08709).
T2 sequence (P08709 whole entry): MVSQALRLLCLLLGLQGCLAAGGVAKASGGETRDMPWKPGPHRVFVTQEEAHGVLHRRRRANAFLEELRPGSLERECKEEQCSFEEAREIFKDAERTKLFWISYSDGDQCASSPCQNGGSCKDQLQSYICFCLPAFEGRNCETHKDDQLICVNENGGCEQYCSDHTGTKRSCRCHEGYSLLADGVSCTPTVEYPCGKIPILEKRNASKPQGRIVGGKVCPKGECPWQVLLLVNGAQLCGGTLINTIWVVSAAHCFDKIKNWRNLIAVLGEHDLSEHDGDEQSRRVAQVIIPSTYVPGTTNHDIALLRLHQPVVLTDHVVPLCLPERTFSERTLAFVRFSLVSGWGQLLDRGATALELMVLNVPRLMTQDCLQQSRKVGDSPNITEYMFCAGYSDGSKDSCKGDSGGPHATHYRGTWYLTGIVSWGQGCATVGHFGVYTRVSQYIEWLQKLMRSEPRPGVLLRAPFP
In words: Inhibition constant towards human coagulation factor VII.

Coagulation factor X, sequence (P00742 41-179 limits assumed): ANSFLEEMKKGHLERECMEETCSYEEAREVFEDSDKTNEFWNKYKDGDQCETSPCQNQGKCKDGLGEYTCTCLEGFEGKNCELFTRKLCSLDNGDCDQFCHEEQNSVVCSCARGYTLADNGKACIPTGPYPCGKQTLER
Coagulation factor X, sequence (P00742 235-488 limits assumed): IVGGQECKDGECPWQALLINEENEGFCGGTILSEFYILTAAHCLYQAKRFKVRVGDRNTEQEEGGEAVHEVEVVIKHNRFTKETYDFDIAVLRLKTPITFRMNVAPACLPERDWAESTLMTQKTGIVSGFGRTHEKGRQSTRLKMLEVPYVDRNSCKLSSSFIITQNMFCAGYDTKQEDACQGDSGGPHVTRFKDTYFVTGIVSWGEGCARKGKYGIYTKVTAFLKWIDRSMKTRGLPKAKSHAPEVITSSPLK

Consider `CC(C)CCN(Cc1ccc2ccc(C(=N)N)cc2c1)C(=O)c1ccc2ccccc2c1`, for which the Ki was 486 nM on Prothrombin, 460 nM on Serine protease 1, 512 nM on Coagulation factor X and 783 nM at Coagulation factor VII.
Consider `CN1CCCC1CCN(Cc1ccc2ccc(C(=N)N)cc2c1)C(=O)c1cccc2ccccc12` (configuration not stated), for which the inhibitory constant (Ki) is > 5000 nM at Prothrombin, 433 nM on Serine protease 1, 111 nM on Coagulation factor X and 142 nM on Coagulation factor VII.
The corresponding values for `N=C(N)c1ccc2ccc(CN(CCc3ccccn3)C(=O)c3cccc4ccccc34)cc2c1` are 4760 nM, 299 nM, 104 nM and 195 nM.
Take `N=C(N)c1ccc2ccc(CN(CCCc3ccccc3)C(=O)c3cccc4ccccc34)cc2c1`: the inhibition constant Ki on Prothrombin was 1200 nM; at Serine protease 1 it was 925 nM; at Coagulation factor X, 632 nM; on Coagulation factor VII, 207 nM.
The corresponding values for `N=C(N)c1ccc2ccc(CN(CCc3cnc[nH]3)C(=O)c3cccc4ccccc34)cc2c1` are > 5000 nM, 378 nM, 264 nM and 305 nM.
The corresponding values for `N=C(N)c1ccc2ccc(CN(CCC[n+]3cc[nH]c3)C(=O)c3cccc4ccccc34)cc2c1` are > 5000 nM, 752 nM, 731 nM and 282 nM.
For `CC1CCCCN1CCCN(Cc1ccc2ccc(C(=N)N)cc2c1)C(=O)c1cccc2ccccc12` (configuration not stated), in that order: > 5000 nM, 367 nM, 137 nM and 646 nM.
For `N=C(N)c1ccc2ccc(CN(CCCN3CCOCC3)C(=O)c3cccc4ccccc34)cc2c1`, the inhibition constant (Ki) was > 5000 nM at Prothrombin, 378 nM at Serine protease 1, 442 nM on Coagulation factor X and 121 nM at Coagulation factor VII.
For `CN1CCN(CCCN(Cc2ccc3ccc(C(=N)N)cc3c2)C(=O)c2cccc3ccccc23)CC1`, in that order: 500 nM, 500 nM, 136 nM and 1310 nM.
For `N=C(N)c1ccc2ccc(CN(CCc3ccc(F)cc3)C(=O)c3cccc4ccccc34)cc2c1`, in that order: 1680 nM, 501 nM, 40 nM and 194 nM.
For `COc1ccc(CCN(Cc2ccc3ccc(C(=N)N)cc3c2)C(=O)c2cccc3ccccc23)cc1OC`, in that order: 2510 nM, 105 nM, 417 nM and 133 nM.
With `CC(C)CCN(Cc1ccc2ccc(C(=N)N)cc2c1)C(=O)c1cccc2ccccc12`, the Ki on Prothrombin came to 1160 nM; at Serine protease 1, 698 nM; at Coagulation factor X, 262 nM; at Coagulation factor VII, 93 nM.
The corresponding values for `CC(C)CC(C(=O)O)N(Cc1ccc2ccc(C(=N)N)cc2c1)C(=O)c1cccc2ccccc12` (single isomer, unassigned) are > 5000 nM, 1610 nM, > 5000 nM and 1010 nM.

As a reminder, the Ki is a dissociation constant, usually derived from enzyme kinetics or from competition with a known ligand.
